Laboratory results reported in PubChem BioAssay AID1963958 (Molecular Pharmacology Branch, DTP, NCI, 2024).

Tested on: MDA-MB-231 multicell spheroids, viability
Assay: Anticancer human tumor MDA-MB-231 cell line growth inhibition [PI3K];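 note: spheroids exposed to agents for seven days before reading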;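 for viability, T/C: percent of vehicle control luminescence with DMSO treated spheroids as 100%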
Settings: for IC50: curve of first compound; for viability, T/C: stronger effect = lower value
Excerpt: Combinatorial screen of targeted agents with the PI3K inhibitors inavolisib, alpelisib, duvelisib, and copanlisib in multi-cell type tumor spheroids
A high-throughput screen of multi-cell type tumor spheroids was designed to identify active combinations of targeted small molecules and PI3K pathway inhibitors. Complex spheroids include a stromal component modeled by human endothelial cells (HUVEC) and fibroblasts modeled by human mesenchymal stem cells (MSCs). The concentration ranges selected for each drug and investigational agent were based upon clinically achievable concentrations if the clinical Cmax of the agent was known.
Compounds. The drugs and investigational agents: inavolisib (NSC800729), alpelisib (NSC765974), duvelisib (NSC772469), copanlisib (NSC816437), ipatasertib (NSC767898), afuresertib (NSC778305), talazoparib (NSC767125), sapanisertib (NSC764658), selumetinib (NSC741078), tovorafenib (DAY101, NSC766906), vemurafenib (NSC761431), ravoxertinib (NSC781343), sotorasib (NSC818433), MRTX1133 (NSC 836407), abemaciclib (NSC 768073), palbociclib (NSC758247), venetoclax (NSC 766270), SY5609 (NSC837396), enzalutamide (NSC755605), and darolutamide (NSC825331), were obtained from the National Cancer Institute (NCI) Developmental Therapeutics Program Chemical Repository. The FDA-approved anticancer drug set is available from the NCI Developmental Therapeutics Program. […] The stock solutions were prepared in dimethyl sulfoxide (DMSO, Sigma-Aldrich, St. Louis, MO, cat. D2650) at 800-fold the tested concentration and stored at -70 degrees C prior to their use. All drugs and investigational agents were tested over a range starting from a high concentration at or near the clinical Cmax and decreasing in half-log increments. If the clinical Cmax for an agent had not been determined, the highest concentration tested was 10 microM.
Cell Culture. All cells were maintained in an incubator at 37 degrees C and 5% CO2 with 95% humidity. The PDC lines were cultured according to standard operating procedures established by the NCI PDMR (https://pdmr.cancer.gov/sops/default.htm). All PDCs were thawed and cultured in Matrigel-coated flasks prepared with a working solution of 1X Ham's F-12 nutrient mix, without supplementation (Invitrogen, Waltham, MA, cat. 11765054), 100 U/mL penicillin-streptomycin (Invitrogen, cat. 15140122), and 2.5% Matrigel (Corning Inc., Corning, NY, cat. 354248) for the first three passages. The 354836-022-R-J1-PDC, 475296-252-R-J1-PDC, and 997726-040-R-J2-PDC lines were cultured in 6A media, which includes advanced DMEM/F-12 (Thermo Fisher Scientific, cat. 12634028), 10 mM HEPES (Thermo Fisher Scientific, cat. 15630080), 1X GlutaMAX supplement (Thermo Fisher Scientific, cat. 35050061), 0.1 mg/mL primocin (InvivoGen, San Diego, CA, cat. ant-pm-2), 10% defined fetal bovine serum, heat inactivated (HyClone Laboratories Inc., Logan, UT, cat. SH30070.03HI), 50% L-WRN conditioned media (ATCC, cat. CRL-3276), 1.25 mM N-Acetyl-L-cysteine (Sigma-Aldrich, cat. A9165), 10 mM nicotinamide (Sigma-Aldrich, cat. N0636), 1X B-27 supplement (Thermo Fisher Scientific, cat. 17504044), 1X N-2 supplement (Thermo Fisher Scientific, cat. 17502048), and 10 microM Y-27632 dihydrochloride (Tocris Bioscience, Bristol, United Kingdom, cat. 1254). The 624824-186-R-J2-PDC line was cultured in 6C/Colon 1B media, which includes all 6A media components plus 50 ng/mL human EGF recombinant protein (Thermo Fisher Scientific, cat. PHG0311). […]

[1] = second compound 0.00316 µM, first compound 0.0316 µM
[2] = second compound 0.00316 µM, first compound 0.1 µM
[3] = second compound 0.00316 µM, first compound 0.316 µM
[4] = second compound 0.00316 µM, first compound 1 µM
[5] = second compound 0.01 µM, first compound 0.0316 µM
[6] = second compound 0.01 µM, first compound 0.1 µM
[7] = second compound 0.01 µM, first compound 0.316 µM
[8] = second compound 0.01 µM, first compound 1 µM
[9] = second compound 0.0316 µM, first compound 0.0316 µM
[10] = second compound 0.0316 µM, first compound 0.1 µM
[11] = second compound 0.0316 µM, first compound 0.316 µM
[12] = second compound 0.0316 µM, first compound 1 µM
[13] = second compound 0.1 µM, first compound 0.0316 µM
[14] = second compound 0.1 µM, first compound 0.1 µM
[15] = second compound 0.1 µM, first compound 0.316 µM
[16] = second compound 0.1 µM, first compound 1 µM
[17] = second compound 0.316 µM, first compound 0.0316 µM
[18] = second compound 0.316 µM, first compound 0.1 µM
[19] = second compound 0.316 µM, first compound 0.316 µM
[20] = second compound 0.316 µM, first compound 1 µM
[21] = second compound 1 µM, first compound 0.0316 µM
[22] = second compound 1 µM, first compound 0.1 µM
[23] = second compound 1 µM, first compound 0.316 µM
[24] = second compound 1 µM, first compound 1 µM

SMILES: CCN1CCN(Cc2ccc(Nc3ncc(F)c(-c4cc(F)c5nc(C)n(C(C)C)c5c4)n3)nc2)CC1 + CC(Nc1ccc2c(c1)OCCn1cc(N3C(=O)OCC3C(F)F)nc1-2)C(N)=O
- IC50 (second compound 0.00316 µM): 131 nM
- IC50 (second compound 0.01 µM): 79.2 nM
- IC50 (second compound 0.0316 µM): 53.2 nM
- IC50 (second compound 0.1 µM): 24.4 nM
- IC50 (second compound 0.316 µM): 21.4 nM
- IC50 (second compound 1 µM): 20 nM
- viability, T/C (second compound 0.00316 µM, first compound 0.00316 µM): 90.8%
- viability, T/C (second compound 0.00316 µM, first compound 0.01 µM): 103%
- viability, T/C [1]: 76%
- viability, T/C [2]: 54.5%
- viability, T/C [3]: 41.9%
- viability, T/C [4]: 44.9%
- viability, T/C (second compound 0.01 µM, first compound 0.00316 µM): 92.7%
- viability, T/C (second compound 0.01 µM, first compound 0.01 µM): 96.3%
- viability, T/C [5]: 65.7%
- viability, T/C [6]: 50.1%
- viability, T/C [7]: 40.6%
- viability, T/C [8]: 47%
- viability, T/C (second compound 0.0316 µM, first compound 0.00316 µM): 80.2%
- viability, T/C (second compound 0.0316 µM, first compound 0.01 µM): 84.3%
- viability, T/C [9]: 57.4%
- viability, T/C [10]: 42.6%
- viability, T/C [11]: 35%
- viability, T/C [12]: 45.5%
- viability, T/C (second compound 0.1 µM, first compound 0.00316 µM): 69.5%
- viability, T/C (second compound 0.1 µM, first compound 0.01 µM): 70.4%
- viability, T/C [13]: 44.2%
- viability, T/C [14]: 37.1%
- viability, T/C [15]: 33.3%
- viability, T/C [16]: 43.8%
- viability, T/C (second compound 0.316 µM, first compound 0.00316 µM): 63.4%
- viability, T/C (second compound 0.316 µM, first compound 0.01 µM): 62.8%
- viability, T/C [17]: 43.4%
- viability, T/C [18]: 36.5%
- viability, T/C [19]: 35.4%
- viability, T/C [20]: 43.5%
- viability, T/C (second compound 1 µM, first compound 0.00316 µM): 60.1%
- viability, T/C (second compound 1 µM, first compound 0.01 µM): 64.8%
- viability, T/C [21]: 41.7%
- viability, T/C [22]: 34.5%
- viability, T/C [23]: 34.4%
- viability, T/C [24]: 39.1%

SMILES: Cn1ncc(Cl)c1-c1cc(C(=O)NC(CN)Cc2cccc(F)c2)sc1Cl (centres undefined) + CC(Nc1ccc2c(c1)OCCn1cc(N3C(=O)OCC3C(F)F)nc1-2)C(N)=O
- IC50 (second compound 0.00316 µM): 2720 nM
- IC50 (second compound 0.01 µM): 2610 nM
- IC50 (second compound 0.0316 µM): 1540 nM
- IC50 (second compound 0.1 µM): 1260 nM
- IC50 (second compound 0.316 µM): 1180 nM
- IC50 (second compound 1 µM): 665 nM
- viability, T/C [1]: 95.7%
- viability, T/C [2]: 94.2%
- viability, T/C [3]: 91.2%
- viability, T/C [4]: 73.4%
- viability, T/C (second compound 0.00316 µM, first compound 3.16 µM): 46.9%
- viability, T/C (second compound 0.00316 µM, first compound 10 µM): 25.3%
- viability, T/C [5]: 91.5%
- viability, T/C [6]: 95.2%
- viability, T/C [7]: 80.7%
- viability, T/C [8]: 70.5%
- viability, T/C (second compound 0.01 µM, first compound 3.16 µM): 45.9%
- viability, T/C (second compound 0.01 µM, first compound 10 µM): 22.8%
- viability, T/C [9]: 76.4%
- viability, T/C [10]: 75.2%
- viability, T/C [11]: 70.1%
- viability, T/C [12]: 58.3%
- viability, T/C (second compound 0.0316 µM, first compound 3.16 µM): 36.6%
- viability, T/C (second compound 0.0316 µM, first compound 10 µM): 24.1%
- viability, T/C [13]: 71.4%
- viability, T/C [14]: 68.8%
- viability, T/C [15]: 62.9%
- viability, T/C [16]: 55.6%
- viability, T/C (second compound 0.1 µM, first compound 3.16 µM): 34.5%
- viability, T/C (second compound 0.1 µM, first compound 10 µM): 22%
- viability, T/C [17]: 66.4%
- viability, T/C [18]: 59.7%
- viability, T/C [19]: 59.7%
- viability, T/C [20]: 53.4%
- viability, T/C (second compound 0.316 µM, first compound 3.16 µM): 36.8%
- viability, T/C (second compound 0.316 µM, first compound 10 µM): 21%
- viability, T/C [21]: 58.9%
- viability, T/C [22]: 56.9%
- viability, T/C [23]: 55.1%
- viability, T/C [24]: 46.8%
- viability, T/C (second compound 1 µM, first compound 3.16 µM): 36.9%
- viability, T/C (second compound 1 µM, first compound 10 µM): 18.9%
